{"source": "patent US11744860B2", "about": "“Technology for efficient activation of NKT cells” (RIKEN, priority 2016, dated 2023)", "type_in_all_cases": "cell-based", "key": {"[1]": {"tested_on": "human NKT cell line", "assay": "NKT cell activating action (IFN-γ production), co-culture of ligand-pulsed cells with human NKT cell line, ELISA", "conditions": "ligand 100 ng/mL; for IFN-γ production from NKT cells induced by ligand-pulsed CD14 positive cells: 48 hr pulse, 1×10^5 pulsed cells with 1×10^5 human NKT cells, 48 hr", "text": "For preparation of the cells obtained by culturing human CD14 positive cells (monocytes) immediately after separation using anti-CD14 antibody and human CD14 negative cells or human Elu-CD14 positive cells (monocytes) for 2 days with GM-CSF and NKT cell ligand RK-163 (respectively called “RK-163-pulsed human CD14 positive cell”, “RK-163-pulsed human CD14 negative cell”, “RK-163-pulsed human Elu-CD14 positive cell”), and the dendritic cells induced to differentiate in 2)-(2) by culturing for 6 days with addition of GM-CSF and IL-4 (called “RK-163-pulsed human dendritic cell”), RK-163 (bulk powder was dissolved in PBS added with DMSO and 0.5% Tween 20) was added to each cell to a final concentration of 100 ng/mL, and the cells were cultured at 37° C., 5% CO2 for 48 hr to produce “RK-163-pulsed cells”. After culturing, the recovered cells were centrifugation washed twice, and the number of viable cells after Trypan Blue staining was calculated by TC20™ Automated Cell Counter. RK-163-pulsed cells and human NKT cell line were respectively suspended in 10% fetal calf serum (Sigma, Lot No. 114K525)-added RMPI-1640 (Invitrogen) to 1×10^6/mL, each cell suspension was seeded at a cell concentration of 1×10^5/0.1 mL/well in a 96-well round-bottomed culture plate, and the cells were cultured at 37° C., 5% CO2 for 48 hr. After culturing, 200 μL of supernatant was recovered, and the produced and secreted IFN-γ was measured using a commercially available ELISA kit (BD Biosciences).\nCD14 positive cells immediately after separation of anti-CD14 antibody-bound microbeads were separated, pulse-cultured in a medium containing NKT ligand RK-163 or other NKT cell ligand α-GalCer at 100 ng/mL and GM-CSF (53.3 ng/mL) for various times (0, 16, 48, 64 and 72 hr), and an influence on the activity of NKT cells to induce IFN-γ production was compared. As a result, IFN-γ production inducing activity was found from 16 hr after pulsing and high activity was found 48-72 hr later (FIG. 4, left). The recovery rate and survival rate at that time were highest at 48 hrs (FIG. 4, right). […]\nUsing RCAI-85 (100 ng/mL), RCAI-137 (100 ng/mL) instead of RK-163, CD14 positive cells (monocytes) isolated from human peripheral blood were pulsed for 48 hr to give each ligand-pulsed CD14 positive cell. 1×10^5 RK-163-pulsed CD14 positive cells or other ligand-pulsed CD14 positive cells were seeded in a 96 well round-bottomed plate, and cocultured with 1×10^5 human NKT cells for 48 hr in a 10% FBS-containing complete RPMI-1640 medium, and the concentration of IFN-γ in the culture medium was measured."}, "[2]": {"tested_on": "human NKT cell line", "assay": "NKT cell activating action (IFN-γ production) of RK-163-pulsed human CD14 positive cell lines", "conditions": "U937 cells, RK-163 100 ng/mL, presence or absence of GM-CSF, 2-48 hr", "method": "Human CD14 positive cell line THP-1 cells and U937 cells were suspended in RPMI1640/10% FBS culture medium to 1-3×10^6 cells/ml, and seeded in a 24-well culture plate (Falcon) at a cell density of 1 mL/well. Simultaneously, RK-163 (bulk powder was dissolved in PBS added with DMSO and 0.5% Tween 20) was added to a final concentration 100 ng/mL, […] to give “RK-163-pulsed human CD14 positive cell line”.\niPS-CD14 positive cells were cultured for 8-48 hr in the presence of RK-163 in the same manner as for THP-1 and U937 to give “RK-163-pulsed human iPS-CD14 positive cell line”.\n[…] After culturing, the recovered cells were washed twice by centrifugation, and the number of viable cells after Trypan Blue staining was calculated by TC20™ Automated Cell Counter. RK-163-pulsed cells and human NKT cell line were respectively suspended in 10% fetal bovine serum (Sigma, Lot No. 114K525)-added RMPI-1640 (Invitrogen) to 1×10^6/mL, each cell suspension was seeded at a cell concentration of 1×10^5/0.1 mL/well in a 96-well round-bottomed culture plate, and the cells were cultured at 37° C., 5% CO2 for 48 hr. After culturing, 200 μL of supernatant was recovered, and the produced and secreted IFN-γ was measured using a commercially available ELISA kit (BD Biosciences). […]"}, "[3]": {"tested_on": "NCI H460 cells (human lung cancer cell line)", "assay": "Cytotoxic activity of NKT cells stimulated with pulsed cells against NCI H460 cells", "text": "Human NKT cells were stimulated by culturing for 8-10 days with the “RK-163-pulsed human CD14 positive cell” or “RK-163-pulsed human dendritic cell” produced in the same manner as above in a mixed medium of AIM-V (50%) and RPMI-1640 (45%) and containing FCS (5%) (lot suitable for proliferation of iPS cells), sodium pyruvate, NEAA, 2-ME, IL-2 (100 U/mL) (Imunace). The mixing ratio of NKT cells and RK-163-pulsed CD14 positive cells or RK-163-pulsed dendritic cells was set to 1:1.5-5. The obtained human NKT cells were cultured for 4 hr together with NCI H460 cells (human lung cancer cell line) in an FBS (10%)-containing complete RPMI-1640 medium on a 96 well round-bottomed plate and the cytotoxic activity against NCI H460 cells was examined. The number of the target cells (NCI H460 cells) was set to 1×10^4 cells/well and the effector:target ratio was set to 3:1 and 10:1."}}}
{"compound": "CCCCCCCCCCCCCCCCCCCCCCCCCC(=O)N[C@@H](CO[C@H]1O[C@H](COC(=O)NO)[C@H](O)[C@H](O)[C@H]1O)[C@H](O)[C@H](O)CCCCCCCCCCCCCC", "note": "[RCAI-137]", "values": [{"measurement": "IFN-γ production from NKT cells induced by ligand-pulsed CD14 positive cells", "setting": "[1]", "value": "strongly induce"}]}
{"compound": "CCCCCCCCCCCCCCCCCCCCCCCCCC(=O)N[C@@H](CO[C@H]1O[C@H](COCC)[C@H](O)[C@H](O)[C@H]1O)[C@H](O)[C@H](O)CCCCCCCCCCCCCC", "note": "[RCAI-85]", "values": [{"measurement": "IFN-γ production from NKT cells induced by ligand-pulsed CD14 positive cells", "setting": "[1]", "value": "strongly induce"}]}
{"compound": "CCCCCCCCCCCCCCCCCCCCCCCCCC(=O)N[C@@H](CO[C@H]1O[C@H](COC(=O)NC)[C@H](O)[C@H](O)[C@H]1O)[C@H](O)[C@H](O)CCCCCCCCCCCCCC", "note": "[RK-163]", "values": [{"measurement": "pulse time from which IFN-γ production inducing activity was found", "setting": "[2]", "value": "≥ 2", "unit": "h"}, {"measurement": "pulse time with high IFN-γ production inducing activity", "setting": "[1]; CD14 positive cells, GM-CSF 53.3 ng/mL", "value": "48 to 72", "unit": "h"}, {"measurement": "pulse time from which IFN-γ production inducing activity was found", "setting": "[1]; CD14 positive cells, GM-CSF 53.3 ng/mL, times 0, 16, 48, 64, 72 hr", "value": "≥ 16", "unit": "h"}, {"measurement": "cytotoxic activity induced on human NKT cells as compared to α-GalCer", "setting": "[3]", "value": "stronger"}]}
